# Measured values: patent US20110070232A1, “Combination Therapy with an Antitumor Alkaloid” (Pharma Mar, S.A., priority 2008, published 2011)
# Read-outs that look alike come from different tables or passages of the source.
# Tests used:
# Format in all cases: in vivo, mice
# BxPC-3 tumors = details: mg/kg/day: PM00104 0.90 IV
# Experimental: Female CB17.SCID mice (Charles River Lab.) were utilized for all experiments. Animals were housed in ventilated rack caging with food and water ad libitum. The mice were acclimated for at least 5 days prior to tumor implantation with a tumor cell suspension.
# The tumor model used in these studies was BxPC-3 cell line, which was obtained from the ATCC (Manassas, Va.).
# Treatments were initiated on DPI 9.
# (§1) Tumor size measurements were recorded twice weekly from the treatment initiation until the termination of the study.
# (§2) Mean, standard deviation and standard error of the mean were determined for tumor volume for all animal groups at all assessments. Student's t test was performed on tumor volumes at each measurement day, including at the end of the study, to determine whether there were any statistically significant differences between combination treatment groups and single monotherapy treatment groups.
# Hs746T tumors = tested on: Hs746T tumors
# Text: Female athymic nude mice (Harlan Sprague Dawley, Madison, Wis.) were utilized for all experiments. Animals were housed in ventilated rack caging with food and water ad libitum. The mice were acclimated for at least 5 days prior to tumor implantation with a tumor cell suspension.
# The tumor model used in these studies was Hs746T cell line, which was obtained from the ATCC (Manassas, Va.).
# Treatments were initiated on DPI 15.
# 5-FU was provided as a solution which was further diluted with water for injection.
# as §1, §2
# NCI-H460 tumors = details: PM00104 0.9 mg/kg/day IV and/or Gemcitabine 180 mg/kg/day IP
# Text: (§3) Female athymic nude mice (Harlan Sprague Dawley, Madison, Wis.) were utilized for all experiments. Animals were housed in ventilated rack caging with food and water ad libitum. The mice were acclimated for at least 5 days prior to tumor implantation.
# The tumor model used in this study was NCI-H460 cell line which is a human NSCLC cell line obtained from the ATCC (Manassas, Va.). […] Cells from in vitro passage 9 were those implanted SC into study mice.
# Treatments were initiated on DPI 8.
# (§4) Tumor size measurements were recorded 2-3 times/week from the treatment initiation until the termination of the study.
# as §2
# CaLu-6 tumors = details: PM00104 0.9 mg/kg/day IV and/or Gemcitabine 180 mg/kg/day IP
# Experimental: as §3
# The tumor model used in this study was CaLu-6 cell line which is a human lung cancer cell line obtained from the ATCC (Manassas, Va.). CaLu-6 cells were grown in Eagle's Minimum Essential Medium (MEM), 10% FBS and 2 mM L-glutamine. Cells from in vitro passage 12 were implanted SC into study mice using a 1 ml syringe with a 13G trocar: 5×10^6 cells/mouse in 0.2 ml 50% Matrigel/50% MEM medium of CaLu-6 without serum or antibiotics. Bacterial culture was taken on cells used to implant the study.
# When tumors reached an appropriated volume, within the size range of 99±17 mm^3 (mean±SD), mice were randomized into the treatment and control groups based on tumor weight by using LabCat® In Life module V 8.0 SP1 tumor tracking and measurement software. Treatments were initiated on DPI 9.
# as §4, §2
# [1] = PM00104 0.9, 5-FU 50 (DPI 15) then 100 (DPI 22 & 29), irinotecan 20, doxorubicin 6 mg/kg/day
compound,measurement,setting,value
COc1c(C)cc2c(c1O)[C@@H]1[C@@H]3Cc4c(OC(C)=O)c(C)c5c(c4[C@H](CNC(=O)/C=C/c4cccc(C(F)(F)F)c4)N3[C@@H](O)[C@H](C2)N1C)OCO5 [PM00104],% Inhibition,"BxPC-3 tumors; day 9, erlotinib 15 PO",−3.8%
same,% Inhibition,"BxPC-3 tumors; day 9, erlotinib 30 PO",−3.8%
same,% Inhibition,"BxPC-3 tumors; day 9, erlotinib 50 PO",−3.8%
same,% T/C on day,"BxPC-3 tumors; day 9, erlotinib 50 PO",103.8%
same,% Inhibition,"BxPC-3 tumors; day 12, erlotinib 15 PO",10.0%
same,% Inhibition,"BxPC-3 tumors; day 12, erlotinib 30 PO",10.0%
same,% Inhibition,"BxPC-3 tumors; day 12, erlotinib 50 PO",10.0%
same,% T/C on day,"BxPC-3 tumors; day 12, erlotinib 50 PO",90.0%
same,% Inhibition,"BxPC-3 tumors; day 15, erlotinib 15 PO",−20.0%
same,% Inhibition,"BxPC-3 tumors; day 15, erlotinib 30 PO",−20.0%
same,% Inhibition,"BxPC-3 tumors; day 15, erlotinib 50 PO",−20.0%
same,% T/C on day,"BxPC-3 tumors; day 15, erlotinib 50 PO",120.0%
same,% Inhibition,"BxPC-3 tumors; day 19, erlotinib 15 PO",1.4%
same,% Inhibition,"BxPC-3 tumors; day 19, erlotinib 30 PO",1.4%
same,% Inhibition,"BxPC-3 tumors; day 19, erlotinib 50 PO",1.4%
same,% T/C on day,"BxPC-3 tumors; day 19, erlotinib 50 PO",98.6%
same,% Inhibition,"BxPC-3 tumors; day 21, erlotinib 15 PO",30.1%
same,% Inhibition,"BxPC-3 tumors; day 21, erlotinib 30 PO",30.1%
same,% Inhibition,"BxPC-3 tumors; day 21, erlotinib 50 PO",30.1%
same,% T/C on day,"BxPC-3 tumors; day 21, erlotinib 50 PO",69.9%
same,% Inhibition,"BxPC-3 tumors; day 26, erlotinib 15 PO",17.4%
same,% Inhibition,"BxPC-3 tumors; day 26, erlotinib 30 PO",17.4%
same,% Inhibition,"BxPC-3 tumors; day 26, erlotinib 50 PO",17.4%
same,% T/C on day,"BxPC-3 tumors; day 26, erlotinib 50 PO",82.6%
same,% Inhibition,"BxPC-3 tumors; day 29, erlotinib 15 PO",30.6%
same,% Inhibition,"BxPC-3 tumors; day 29, erlotinib 30 PO",30.6%
same,% Inhibition,"BxPC-3 tumors; day 29, erlotinib 50 PO",30.6%
same,% T/C on day,"BxPC-3 tumors; day 29, erlotinib 50 PO",69.4%
same,% Inhibition,"BxPC-3 tumors; day 33, erlotinib 15 PO",17.8%
same,% Inhibition,"BxPC-3 tumors; day 33, erlotinib 30 PO",17.8%
same,% Inhibition,"BxPC-3 tumors; day 33, erlotinib 50 PO",17.8%
same,% T/C on day,"BxPC-3 tumors; day 33, erlotinib 50 PO",82.2%
same,% Inhibition,"BxPC-3 tumors; day 40, erlotinib 15 PO",14.2%
same,% Inhibition,"BxPC-3 tumors; day 40, erlotinib 30 PO",14.2%
same,% Inhibition,"BxPC-3 tumors; day 40, erlotinib 50 PO",14.2%
same,% T/C on day,"BxPC-3 tumors; day 40, erlotinib 50 PO",85.8%
same,% T/C on day 15,Hs746T tumors; [1],106.6%
same,% T/C on day 19,Hs746T tumors; [1],55.8%
same,% T/C on day 22,Hs746T tumors; [1],60.9%
same,% T/C on day 26,Hs746T tumors; [1],54.2%
same,% T/C on day 29,Hs746T tumors; [1],58.6%
same,% T/C on day 33,Hs746T tumors; [1],80.8%
same,% Inhibition,"Hs746T tumors; day 15, PM00104 0.9 and doxorubicin 6 mg/kg/day",−6.6%
same,% Inhibition,"Hs746T tumors; day 15, PM00104 0.9 and irinotecan 20 mg/kg/day",−6.6%
same,% Inhibition,"Hs746T tumors; day 15, mg/kg/day: PM00104 0.90 IV, 5-FU 50 at DPI 15 and 100 at DPI 22 & 29 IP",−6.6%
same,% Inhibition,"Hs746T tumors; day 19, PM00104 0.9 and doxorubicin 6 mg/kg/day",44.2%
same,% Inhibition,"Hs746T tumors; day 19, PM00104 0.9 and irinotecan 20 mg/kg/day",44.2%
same,% Inhibition,"Hs746T tumors; day 19, mg/kg/day: PM00104 0.90 IV, 5-FU 50 at DPI 15 and 100 at DPI 22 & 29 IP",44.2%
same,% Inhibition,"Hs746T tumors; day 22, PM00104 0.9 and doxorubicin 6 mg/kg/day",39.1%
same,% Inhibition,"Hs746T tumors; day 22, PM00104 0.9 and irinotecan 20 mg/kg/day",39.1%
same,% Inhibition,"Hs746T tumors; day 22, mg/kg/day: PM00104 0.90 IV, 5-FU 50 at DPI 15 and 100 at DPI 22 & 29 IP",39.1%
same,% Inhibition,"Hs746T tumors; day 26, PM00104 0.9 and doxorubicin 6 mg/kg/day",45.8%
same,% Inhibition,"Hs746T tumors; day 26, PM00104 0.9 and irinotecan 20 mg/kg/day",45.8%
same,% Inhibition,"Hs746T tumors; day 26, mg/kg/day: PM00104 0.90 IV, 5-FU 50 at DPI 15 and 100 at DPI 22 & 29 IP",45.8%
same,% Inhibition,"Hs746T tumors; day 29, PM00104 0.9 and doxorubicin 6 mg/kg/day",41.4%
same,% Inhibition,"Hs746T tumors; day 29, PM00104 0.9 and irinotecan 20 mg/kg/day",41.4%
same,% Inhibition,"Hs746T tumors; day 29, mg/kg/day: PM00104 0.90 IV, 5-FU 50 at DPI 15 and 100 at DPI 22 & 29 IP",41.4%
same,% Inhibition,"Hs746T tumors; day 33, PM00104 0.9 and doxorubicin 6 mg/kg/day",19.2%
same,% Inhibition,"Hs746T tumors; day 33, PM00104 0.9 and irinotecan 20 mg/kg/day",19.2%
same,% Inhibition,"Hs746T tumors; day 33, mg/kg/day: PM00104 0.90 IV, 5-FU 50 at DPI 15 and 100 at DPI 22 & 29 IP",19.2%
same,% T/C on day 8,NCI-H460 tumors,103.0%
same,% T/C on day 11,NCI-H460 tumors,98.5%
same,% T/C on day 14,NCI-H460 tumors,85.6%
same,% T/C on day 18,NCI-H460 tumors,90.8%
same,% T/C on day 21,NCI-H460 tumors,81.2%
same,% T/C on day 25,NCI-H460 tumors,76.7%
same,% T/C on day 28,NCI-H460 tumors,77.3%
same,% T/C on day 9,CaLu-6 tumors,102.6%
same,% T/C on day 12,CaLu-6 tumors,77.9%
same,% T/C on day 15,CaLu-6 tumors,78.8%
same,% T/C on day 19,CaLu-6 tumors,90.6%
same,% T/C on day 22,CaLu-6 tumors,87.8%
same,% T/C on day 26,CaLu-6 tumors,87.6%
same,% T/C on day 29,CaLu-6 tumors,73.5%
same,% T/C on day 34,CaLu-6 tumors,75.8%
same,% T/C on day 40,CaLu-6 tumors,88.3%
